Laboratory results: ChEMBL document CHEMBL1212750, “Continuous clindamycin infusion, an innovative approach to treating bone and joint infections” (Antimicrob Agents Chemother, 2010)
Active and inactive are the calls of the source. The calls are words filed in the database; no cut-off is given here.

Experiments:
[1] = Cmax po dosed in human co-treated with rifampin; assay type: ADME, organism-based; set-up: route oral; conditions: in vivo
[2] = test system: Serum; test: Drug level in bone/joint infection patient serum assessed as median concentration at 2400 mg, iv after 3 to 14 days; assay type: ADME, organism-based; conditions: human, in vivo
[3] = test system: Serum; test: Drug level in bone/joint infection patient serum assessed as median concentration at 2400 mg, iv after 8 to 28 days; assay type: ADME, organism-based; conditions: human, in vivo
[4] = test system: Staphylococcus aureus; test: Antimicrobial activity against Staphylococcus aureus infection in human assessed as curing from bone/joint infection at 600 mg, iv followed by 30 to 40 mg/kg of body weight, iv followed by oral regimen upto 30 months; assay type: functional, organism-based
[5] = test system: Staphylococcus aureus; test: Antimicrobial activity against Staphylococcus aureus SJ11617; assay type: functional

Structure (SMILES) | Cmax [1] | Drug uptake [2] | Drug uptake [3] | Activity [4] | MIC [5]
CCC[C@@H]1C[C@@H](C(=O)N[C@@H]([C@H]2O[C@H](SC)[C@H](O)[C@@H](O)[C@H]2O)[C@H](C)Cl)N(C)C1 [CLINDAMYCIN] | < 2500 ng/mL | 5 mg/L | 6.2 mg/L | Active | –
C[C@@H]1O[C@@H]1P(=O)(O)O [FOSFOMYCIN] | – | – | – | – | > 512 µg/mL
CC(=O)O[C@H]1C[C@@]2(C)[C@@H](C[C@@H](O)[C@H]3[C@@]4(C)CC[C@@H](O)[C@@H](C)[C@@H]4CC[C@@]32C)/C1=C(\CCC=C(C)C)C(=O)O [FUSIDIC ACID] | – | – | – | – | > 256 µg/mL
CO[C@H]1/C=C/O[C@@]2(C)Oc3c(C)c(O)c4c(O)c(c(/C=N/N5CCN(C)CC5)c(O)c4c3C2=O)NC(=O)/C(C)=C\C=C\[C@H](C)[C@H](O)[C@@H](C)[C@@H](O)[C@@H](C)[C@H](OC(C)=O)[C@@H]1C [RIFAMPIN] | – | – | – | – | > 128 µg/mL
